Assay results: article PMC8829872 (Cancer chemotherapy and pharmacology, 2022)
Read-outs that look alike come from different tables or passages of the source.

Test: Extensive tissue distribution study in CT26 tumor-bearing mice
Assay type: in vivo, Balb/c mice
Settings: for Kp: oral, 75 mg/kg
Method: Mice were injected subcutaneously on the right flank with 1x10^6 CT26 cells, a murine colorectal carcinoma cell line from BALB/c mice,obtained from ATCC (Manassas, VA). Cells were cultured in RPMI-1640 medium with L-glutamine (BioWhittaker Inc., Walkersville, MD), containing 10% heat-inactivated fetal bovine serum and 100 units of penicillin/mL and 100 μg/mL of streptomycin (Biofluids, BioSource, Rockville, MD) in an incubator with 95% air, 5% CO2, and 95% humidity at 37 °C. Cells were verified and checked for mycoplasm by IDEXX BioAnalytics (Westbrook, ME). Implantation and tumor growth were monitored twice weekly with a digital caliper. When tumors were approximately 200 mm^3, mice were stratified into time groups (N=3) primarily using body weight and secondarily using tumor size. Mice were administered 75 mg/kg PO through oral gavage. […] Bone marrow was obtained by flushing both femurs from each mouse with PBS, followed by centrifugation at 12,000 x g and removal of the supernatant. Protein analysis of the resuspended pellet was conducted using the Bio-Rad protein assay following the manufacturer’s instructions with bovine serum albumin as the standard. Blood was processed to obtain plasma and urine and feces were collected as described above.
For tissue and tumor analysis, samples were homogenized with 3 parts PBS (v/g) and further diluted with control plasma and concentrations determined from calibration curves prepared in control plasma.

[1] = Balb/c, mouse, 75 mg/kg PO-ext, plasma

C[C@@H]1COCCN1c1cc(C2([S@](C)(=N)=O)CC2)nc(-c2cc[nH]c3nccc2-3)n1 [AZD6738]
Cl (75 mg/kg PO-ext): 37.3 mL/min/kg
Vd (75 mg/kg PO-ext): 5.66 L/kg
0-24h urine (75 mg/kg PO-ext, unaltered drug): 3.19 % dose
0-24h feces (75 mg/kg PO-ext, unchanged drug): 8.58 % dose
AUC0-∞ (75 mg/kg PO, Plasma): 2,371 (185) μg/mL•min
Cmax (75 mg/kg PO, Plasma): 14.1 (1.7) μg/mL
Tmax (75 mg/kg PO, Plasma): 15 min
AUC(0-t) (75 mg/kg PO, Plasma, 0-1440 min): 2,371 (185) μg/mL•min
Kp (Balb/c, mouse, bone marrow / plasma, 75 mg/kg PO, Bone Marrow to corresponding plasma AUC (0-360), read-out: Partition Coefficient): 4.6
Kp (Balb/c, mouse, brain, 75 mg/kg PO, Brain to corresponding plasma AUC (0-960), read-out: Partition Coefficient): ~0.05
Kp (Balb/c, mouse, draining lymph node / plasma, 75 mg/kg PO, Draining Lymph Node to plasma AUC, read-out: Partition Coefficient): 0.792
Kp (Balb/c, mouse, esophagus / plasma, 75 mg/kg PO, Esophagus to plasma AUC, read-out: Partition Coefficient): 3.27
Kp (Balb/c, mouse, fat, 75 mg/kg PO, Fat to plasma AUC, read-out: Partition Coefficient): 0.412
Kp (Balb/c, mouse, kidney / plasma, 75 mg/kg PO, Kidneys to plasma AUC, read-out: Partition Coefficient): 2.77
AUC(0-inf) (Balb/c, mouse, kidney, 75 mg/kg PO, Kidneys): 109000 ng·h/mL
AUC(0-t) (Balb/c, mouse, kidney, 75 mg/kg PO, Kidneys, 0-1440 min, read-out: AUC0-t (converted)): 109000 ng·h/mL
Cmax (Balb/c, mouse, kidney, 75 mg/kg PO, Kidneys, read-out: Cmax): 39200 ng/mL
Tmax (Balb/c, mouse, kidney, 75 mg/kg PO, Kidneys, read-out: Tmax (converted)): 15 min
Kp (Balb/c, mouse, liver / plasma, 75 mg/kg PO, Liver to plasma AUC, read-out: Partition Coefficient): 7.42
AUC(0-inf) (Balb/c, mouse, lung, 75 mg/kg PO, Lungs): 42100 ng·h/mL
AUC(0-t) (Balb/c, mouse, lung, 75 mg/kg PO, Lungs, 0-1440 min, read-out: AUC0-t (converted)): 42100 ng·h/mL
Cmax (Balb/c, mouse, lung, 75 mg/kg PO, Lungs, read-out: Cmax): 17400 ng/mL
Tmax (Balb/c, mouse, lung, 75 mg/kg PO, Lungs, read-out: Tmax (converted)): 15 min
Kp (Balb/c, mouse, non-draining lymph node / plasma, 75 mg/kg PO, Non-draining Lymph Node to plasma AUC, read-out: Partition Coefficient): 0.983
Kp (Balb/c, mouse, red blood cells (RBC) / plasma, 75 mg/kg PO, RBC to plasma AUC, read-out: Partition Coefficient): 0.701
AUC(0-inf) (Balb/c, mouse, red blood cells (RBC), 75 mg/kg PO, RBC): 27700 ng·h/mL
AUC(0-t) (Balb/c, mouse, red blood cells (RBC), 75 mg/kg PO, RBC, 0-1440 min, read-out: AUC0-t (converted)): 27700 ng·h/mL
Cmax (Balb/c, mouse, red blood cells (RBC), 75 mg/kg PO, RBC, read-out: Cmax): 13200 ng/mL
Tmax (Balb/c, mouse, red blood cells (RBC), 75 mg/kg PO, RBC, read-out: Tmax (converted)): 15 min
AUC(0-inf) (Balb/c, mouse, skeletal muscle, 75 mg/kg PO, Muscle): 41200 ng·h/mL
AUC(0-t) (Balb/c, mouse, skeletal muscle, 75 mg/kg PO, Muscle, 0-1440 min, read-out: AUC0-t (converted)): 41200 ng·h/mL
Cmax (Balb/c, mouse, skeletal muscle, 75 mg/kg PO, Muscle, read-out: Cmax): 12500 ng/mL
Tmax (Balb/c, mouse, skeletal muscle, 75 mg/kg PO, Muscle, read-out: Tmax (converted)): 15 min
Kp (Balb/c, mouse, small intestine / plasma, 75 mg/kg PO, Small Intestine to plasma AUC, read-out: Partition Coefficient): 8.39
Kp (Balb/c, mouse, spinal cord, 75 mg/kg PO, Spinal Cord to plasma AUC, read-out: Partition Coefficient): ~0.05
Kp (Balb/c, mouse, spleen / plasma, 75 mg/kg PO, Spleen to plasma AUC, read-out: Partition Coefficient): 0.891
Kp (Balb/c, mouse, thymus / plasma, 75 mg/kg PO, Thymus to plasma AUC, read-out: Partition Coefficient): 0.652
Kp (Balb/c, mouse, tumor / plasma, 75 mg/kg PO, Tumor to plasma AUC, read-out: Partition Coefficient): 0.75
Kp (Balb/c, mouse, tumor, 75 mg/kg PO, CT26 tumor, read-out: Tumor exposure relative to plasma): ~0.75
Cmax (Balb/c, mouse, 75 mg/kg PO-ext (tissue distribution study), plasma, read-out: Cmax): 14100 ng/mL
AUC(0-inf) [1]: 39500 ng·h/mL
half-life [1]: 105 min
AUC(0-t) (Balb/c, mouse, 75 mg/kg PO-ext, plasma, read-out: AUC0-360 (converted)): 39500 ng·h/mL
Tmax (Balb/c, mouse, 75 mg/kg PO-ext, plasma, read-out: Tmax (converted)): 15 min
AUC(0-inf) (Balb/c, mouse, 75 mg/kg PO, Bone Marrow): 133000 ng·h/mL
AUC(0-t) (Balb/c, mouse, 75 mg/kg PO, Bone Marrow, 0-360 min, read-out: AUC0-t (converted)): 133000 ng·h/mL
Cmax (Balb/c, mouse, 75 mg/kg PO, Bone Marrow, read-out: Cmax): 65800 ng/mL
Tmax (Balb/c, mouse, 75 mg/kg PO, Bone Marrow, read-out: Tmax (converted)): 30 min
AUC(0-inf) (Balb/c, mouse, 75 mg/kg PO, Brain): 2100 ng·h/mL
AUC(0-t) (Balb/c, mouse, 75 mg/kg PO, Brain, 0-960 min, read-out: AUC0-t (converted)): 2100 ng·h/mL
Cmax (Balb/c, mouse, 75 mg/kg PO, Brain, read-out: Cmax): 854 ng/mL
Tmax (Balb/c, mouse, 75 mg/kg PO, Brain, read-out: Tmax (converted)): 15 min
AUC(0-inf) (Balb/c, mouse, 75 mg/kg PO, CT26 Tumor): 29600 ng·h/mL
AUC(0-t) (Balb/c, mouse, 75 mg/kg PO, CT26 Tumor, 0-1440 min, read-out: AUC0-t (converted)): 29600 ng·h/mL
Cmax (Balb/c, mouse, 75 mg/kg PO, CT26 Tumor, read-out: Cmax): 10100 ng/mL
Tmax (Balb/c, mouse, 75 mg/kg PO, CT26 Tumor, read-out: Tmax (converted)): 30 min
AUC(0-inf) (Balb/c, mouse, 75 mg/kg PO, Draining Lymph Node): 31300 ng·h/mL
AUC(0-t) (Balb/c, mouse, 75 mg/kg PO, Draining Lymph Node, 0-1440 min, read-out: AUC0-t (converted)): 31200 ng·h/mL
Cmax (Balb/c, mouse, 75 mg/kg PO, Draining Lymph Node, read-out: Cmax): 12100 ng/mL
Tmax (Balb/c, mouse, 75 mg/kg PO, Draining Lymph Node, read-out: Tmax (converted)): 15 min
AUC(0-inf) (Balb/c, mouse, 75 mg/kg PO, Esophagus): 129000 ng·h/mL
AUC(0-t) (Balb/c, mouse, 75 mg/kg PO, Esophagus, 0-1440 min, read-out: AUC0-t (converted)): 129000 ng·h/mL
Cmax (Balb/c, mouse, 75 mg/kg PO, Esophagus, read-out: Cmax): 115000 ng/mL
Tmax (Balb/c, mouse, 75 mg/kg PO, Esophagus, read-out: Tmax (converted)): 5 min
AUC(0-inf) (Balb/c, mouse, 75 mg/kg PO, Fat): 16300 ng·h/mL
AUC(0-t) (Balb/c, mouse, 75 mg/kg PO, Fat, 0-1440 min, read-out: AUC0-t (converted)): 16300 ng·h/mL
Cmax (Balb/c, mouse, 75 mg/kg PO, Fat, read-out: Cmax): 9200 ng/mL
Tmax (Balb/c, mouse, 75 mg/kg PO, Fat, read-out: Tmax (converted)): 30 min
AUC(0-inf) (Balb/c, mouse, 75 mg/kg PO, Heart): 45600 ng·h/mL
AUC(0-t) (Balb/c, mouse, 75 mg/kg PO, Heart, 0-1440 min, read-out: AUC0-t (converted)): 45600 ng·h/mL
Cmax (Balb/c, mouse, 75 mg/kg PO, Heart, read-out: Cmax): 19400 ng/mL
Tmax (Balb/c, mouse, 75 mg/kg PO, Heart, read-out: Tmax (converted)): 15 min
AUC(0-inf) (Balb/c, mouse, 75 mg/kg PO, Liver): 293000 ng·h/mL
AUC(0-t) (Balb/c, mouse, 75 mg/kg PO, Liver, 0-1440 min, read-out: AUC0-t (converted)): 293000 ng·h/mL
Cmax (Balb/c, mouse, 75 mg/kg PO, Liver, read-out: Cmax): 114000 ng/mL
Tmax (Balb/c, mouse, 75 mg/kg PO, Liver, read-out: Tmax (converted)): 15 min
AUC(0-inf) (Balb/c, mouse, 75 mg/kg PO, Non-draining Lymph Node): 38800 ng·h/mL
AUC(0-t) (Balb/c, mouse, 75 mg/kg PO, Non-draining Lymph Node, 0-1440 min, read-out: AUC0-t (converted)): 38800 ng·h/mL
Cmax (Balb/c, mouse, 75 mg/kg PO, Non-draining Lymph Node, read-out: Cmax): 16100 ng/mL
Tmax (Balb/c, mouse, 75 mg/kg PO, Non-draining Lymph Node, read-out: Tmax (converted)): 15 min
AUC(0-inf) (Balb/c, mouse, 75 mg/kg PO, Small Intestine): 332000 ng·h/mL
AUC(0-t) (Balb/c, mouse, 75 mg/kg PO, Small Intestine, 0-1440 min, read-out: AUC0-t (converted)): 331000 ng·h/mL
Cmax (Balb/c, mouse, 75 mg/kg PO, Small Intestine, read-out: Cmax): 204000 ng/mL
Tmax (Balb/c, mouse, 75 mg/kg PO, Small Intestine, read-out: Tmax (converted)): 15 min
AUC(0-inf) (Balb/c, mouse, 75 mg/kg PO, Spinal Cord): 2450 ng·h/mL
AUC(0-t) (Balb/c, mouse, 75 mg/kg PO, Spinal Cord, 0-1440 min, read-out: AUC0-t (converted)): 2420 ng·h/mL
Cmax (Balb/c, mouse, 75 mg/kg PO, Spinal Cord, read-out: Cmax): 1010 ng/mL
Tmax (Balb/c, mouse, 75 mg/kg PO, Spinal Cord, read-out: Tmax (converted)): 15 min
AUC(0-inf) (Balb/c, mouse, 75 mg/kg PO, Spleen): 35200 ng·h/mL
AUC(0-t) (Balb/c, mouse, 75 mg/kg PO, Spleen, 0-1440 min, read-out: AUC0-t (converted)): 35200 ng·h/mL
Cmax (Balb/c, mouse, 75 mg/kg PO, Spleen, read-out: Cmax): 14200 ng/mL
Tmax (Balb/c, mouse, 75 mg/kg PO, Spleen, read-out: Tmax (converted)): 15 min
AUC(0-inf) (Balb/c, mouse, 75 mg/kg PO, Thymus): 25800 ng·h/mL
AUC(0-t) (Balb/c, mouse, 75 mg/kg PO, Thymus, 0-1440 min, read-out: AUC0-t (converted)): 25800 ng·h/mL
Cmax (Balb/c, mouse, 75 mg/kg PO, Thymus, read-out: Cmax): 9630 ng/mL
Tmax (Balb/c, mouse, 75 mg/kg PO, Thymus, read-out: Tmax (converted)): 5 min
